Patent publication US20230398130A1, “METHODS AND COMPOSITIONS FOR DIFFERENTIATING STEM CELLS” (Massachusetts Institute of Technology, priority 2020, published 2023)

How the values were obtained:
[1] = test system: ISC-enriched organoids; experiment: Primary screen, 384-well 2.5-D organoid differentiation (ENR+CD, 6 days): basal lysozyme secretion (LYZ.NS); format: cell-based, murine; details: for Dose.FC.LYZ.NS / Z.LYZ.NS / SSMD.LYZ.NS: primary screen; for Dose.FC.LYZ.NS: FC vs plate median; for Z.LYZ.NS: standard z score; for SSMD.LYZ.NS: strictly standardized mean difference
Text: (§1) High-throughput screening.

[2] = test system: ISC-enriched organoids; experiment: Primary screen, 384-well 2.5-D organoid differentiation (ENR+CD, 6 days, Target Selective Inhibitor Library, vs whole-plate median): ATP (CellTiter-Glo 3D, CTG); details: for Dose.FC.CTG / Z.CTG / SSMD.CTG: primary screen; for Dose.FC.CTG: FC vs plate median; for Z.CTG: standard z score; for SSMD.CTG: strictly standardized mean difference
[3] = test system: ISC-enriched organoids; experiment: Primary screen, 384-well 2.5-D organoid differentiation (ENR+CD, 6 days): carbachol-induced lysozyme secretion (LYZ.S); format: cell-based, murine; details: primary screen; for Dose.FC.LYZ.S: FC vs plate median; for Z.LYZ.S: standard z score; for SSMD.LYZ.S: strictly standardized mean difference
Text: as §1

[4] = 1st of the 4 dose lines of the treatment (dose not given)
[5] = 2nd of the 4 dose lines of the treatment (dose not given)
[6] = 3rd of the 4 dose lines of the treatment (dose not given)
[7] = 4th of the 4 dose lines of the treatment (dose not given)

Work on `Cc1ccc(NC(=O)c2ccc(CN3CCN(C)CC3)cc2)cc1Nc1nccc(-c2cccnc2)n1` [Imatinib (STI571)] yielded a Dose.FC.LYZ.NS ([1]; Dose 0.08 uM) of 0.033 log 2 fold change, a Z.LYZ.NS ([1]; Dose 0.08 uM) of 0.284 and a Dose.FC.LYZ.NS ([1]; Dose 0.40 uM) of 0.012 log 2 fold change. It also gave a Z.LYZ.NS ([1]; Dose 0.40 uM) of 0.104, a Dose.FC.LYZ.NS ([1]; Dose 2.00 uM) of 0.025 log 2 fold change and a Z.LYZ.NS ([1]; Dose 2.00 uM) of 0.217. It also gave a Dose.FC.LYZ.NS ([1]; Dose 10.00 uM) of −0.038 log 2 fold change, a Z.LYZ.NS ([1]; Dose 10.00 uM) of −0.333 and an SSMD.LYZ.NS [1, 4] of 0.326. It also gave an SSMD.LYZ.NS [1, 5] of 0.108, an SSMD.LYZ.NS [1, 6] of 0.152 and an SSMD.LYZ.NS [1, 7] of −0.330. It also gave a Dose.FC.CTG ([2]; Dose 0.08 uM) of −0.150 log 2 fold change, a Z.CTG ([2]; Dose 0.08 uM) of −0.357 and a Dose.FC.CTG ([2]; Dose 0.40 uM) of 0.079 log 2 fold change. It also gave a Z.CTG ([2]; Dose 0.40 uM) of 0.188, a Dose.FC.CTG ([2]; Dose 2.00 uM) of 0.056 log 2 fold change and a Z.CTG ([2]; Dose 2.00 uM) of 0.135. It also gave a Dose.FC.CTG ([2]; Dose 10.00 uM) of −0.034 log 2 fold change, a Z.CTG ([2]; Dose 10.00 uM) of −0.082 and an SSMD.CTG [2, 4] of −0.258. For the same compound, the SSMD.CTG [2, 5] was 0.254, the SSMD.CTG [2, 6] was 0.194 and the SSMD.CTG [2, 7] was −0.097.

Compound `CC1=C(/C=C/C(C)=C/C=C/C(C)=C\C(=O)O)C(C)(C)CCC1` [Isotretinoin] has an SSMD.LYZ.NS [1, 4] of 0.753, an SSMD.LYZ.NS [1, 5] of 0.312 and an SSMD.LYZ.NS [1, 6] of 0.410. For the same compound, the SSMD.LYZ.NS [1, 7] was 0.680, the Z.CTG ([2]; Dose 0.08 uM) was 0.982 and the Z.CTG ([2]; Dose 0.40 uM) was 0.965. For the same compound, the Z.CTG ([2]; Dose 2.00 uM) was 0.604, the Z.CTG ([2]; Dose 10.00 uM) was 0.331 and the SSMD.CTG [2, 4] was 1.156. For the same compound, the SSMD.CTG [2, 5] was 0.966, the SSMD.CTG [2, 6] was 0.779 and the SSMD.CTG [2, 7] was 0.304.

With `O=c1cc(-c2cccc3c2Sc2ccccc2S3)oc(N2CCOCC2)c1` [KU-55933 (ATM Kinase Inhibitor)] the Dose.FC.LYZ.S ([3]; Dose 0.08 uM) was 0.168 log 2 fold change, the Dose.FC.LYZ.S ([3]; Dose 0.40 uM) was 0.200 log 2 fold change and the Dose.FC.LYZ.S ([3]; Dose 2.00 uM) was 0.161 log 2 fold change. It also gave a Dose.FC.LYZ.S ([3]; Dose 10.00 uM) of 0.076 log 2 fold change, a Z.LYZ.S [3, 4] of 1.088 and a Z.LYZ.S [3, 5] of 1.291. For the same compound, the Z.LYZ.S [3, 6] was 1.043, the Z.LYZ.S [3, 7] was 0.494 and the SSMD.LYZ.S [3, 4] was 1.113. The SSMD.LYZ.S [3, 5] was 0.994, the SSMD.LYZ.S [3, 6] was 1.246 and the SSMD.LYZ.S [3, 7] was 0.400. For the same compound, the Dose.FC.CTG ([2]; Dose 0.08 uM) was 0.524 log 2 fold change, the Z.CTG ([2]; Dose 0.08 uM) was 1.251 and the Dose.FC.CTG ([2]; Dose 0.40 uM) was 0.477 log 2 fold change. The Z.CTG ([2]; Dose 0.40 uM) was 1.140, the Dose.FC.CTG ([2]; Dose 2.00 uM) was 0.551 log 2 fold change and the Z.CTG ([2]; Dose 2.00 uM) was 1.317. It also gave a Dose.FC.CTG ([2]; Dose 10.00 uM) of 0.541 log 2 fold change, a Z.CTG ([2]; Dose 10.00 uM) of 1.293 and an SSMD.CTG [2, 4] of 1.626. The SSMD.CTG [2, 5] was 1.743, the SSMD.CTG [2, 6] was 1.554 and the SSMD.CTG [2, 7] was 1.744.

`NC(=O)c1cccc(-c2cccc(OC(=O)NC3CCCCC3)c2)c1` [URB597] was tested, and the “Z.LYZ.NS (standard z score)” value ([1]; dose 0.08 uM) was 0.754, the “Z.LYZ.NS (standard z score)” value ([1]; dose 0.40 uM) was −0.007 and the “Z.LYZ.NS (standard z score)” value ([1]; dose 2.00 uM) was 0.307. For the same compound, the “Z.LYZ.NS (standard z score)” value ([1]; dose 10.00 uM) was −0.123, the “Z.CTG (standard z score)” value ([2]; dose 0.08 uM) was 0.750 and the “Z.CTG (standard z score)” value ([2]; dose 0.40 uM) was 0.154. The “Z.CTG (standard z score)” value ([2]; dose 2.00 uM) was 0.328 and the “Z.CTG (standard z score)” value ([2]; dose 10.00 uM) was −0.051.

For `CC(C)OC(=O)C1=CN(C(=O)c2ccc(F)c(F)c2)CC(C)(C)c2c1[nH]c1ccccc21` [XL335], the “Z.CTG (standard z score)” value ([2]; dose 0.08 uM) was 0.297, the “Z.CTG (standard z score)” value ([2]; dose 0.40 uM) was −0.615 and the “Z.CTG (standard z score)” value ([2]; dose 2.00 uM) was −0.619. For the same compound, the “Z.CTG (standard z score)” value ([2]; dose 10.00 uM) was −0.373.

In the case of `O=c1ncccn1[C@@H]1O[C@H](CO)[C@@H](O)[C@H]1O` [Zebularine], the “Z.CTG (standard z score)” value ([2]; dose 0.08 uM) is reported as 0.085, the “Z.CTG (standard z score)” value ([2]; dose 0.40 uM) is reported as 0.000 and the “Z.CTG (standard z score)” value ([2]; dose 2.00 uM) is reported as −0.213. The “Z.CTG (standard z score)” value ([2]; dose 10.00 uM) was −0.399.

For VU 0357121, the “Z.LYZ.NS (standard z score)” value ([1]; dose 0.08 uM) was 0.686, the “Z.LYZ.NS (standard z score)” value ([1]; dose 0.40 uM) was −0.090 and the “Z.LYZ.NS (standard z score)” value ([1]; dose 2.00 uM) was 0.261. The “Z.CTG (standard z score)” value ([2]; dose 0.08 uM) was 0.438, the “Z.CTG (standard z score)” value ([2]; dose 0.40 uM) was 0.352 and the “Z.CTG (standard z score)” value ([2]; dose 2.00 uM) was 0.029. The “Z.CTG (standard z score)” value ([2]; dose 10.00 uM) was −0.141.
